Data from BigSolDB 2.1.

C[C@H]1COc2c(N3CCN(C)CC3)c(F)c(N)c3c(=O)c(C(=O)O)cn1c23.Cl
solubility (mole fraction)
Conditions | 273.15 K | 278.15 K | 283.15 K | 288.15 K | 293.15 K | 298.15 K | 303.15 K | 308.15 K | 313.15 K | 318.15 K
in acetonitrile | 2.41e-06 | 2.73e-06 | 3.11e-06 | 3.59e-06 | 4.1e-06 | 4.68e-06 | 5.36e-06 | 6.07e-06 | 6.9e-06 | 7.84e-06
in ethanol | 9.29e-06 | 1.06e-05 | 1.22e-05 | 1.39e-05 | 1.59e-05 | 1.78e-05 | 2.02e-05 | 2.29e-05 | 2.56e-05 | 2.87e-05
in water | 0.000436 | 0.000564 | 0.000725 | 0.000971 | 0.00126 | 0.00161 | 0.00204 | 0.00253 | 0.00311 | 0.00376
